According to PubChem BioAssay (NCI):
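Here, GI50 denotes the concentration required for 50% inhibition of growth. The concentration for full growth arrest is given as TGI.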

How the values were obtained:
Experiment in all cases: NCI anticancer screen, dose series, 384-well format
CAKI-1 renal = test system: CAKI-1 renal
CCRF-CEM leukemia = test system: CCRF-CEM leukemia
HOP-62 NSCLC = test system: HOP-62 NSCLC
HT29 colon = test system: HT29 colon
MCF7 breast = test system: MCF7 breast
MOLT-4 leukemia = test system: MOLT-4 leukemia
NCI-H226 lung = test system: NCI-H226 lung
NCI-H522 lung = test system: NCI-H522 lung
PC-3 prostate = test system: PC-3 prostate
SF-295 CNS = test system: SF-295 CNS
SK-MEL-2 melanoma = test system: SK-MEL-2 melanoma
SN12C renal = test system: SN12C renal
SNB-75 CNS = test system: SNB-75 CNS

O=C(c1cc(Cc2n[nH]c(=O)c3ccccc23)ccc1F)N1CCN(C(=O)C2CC2)CC1
GI50 (CAKI-1 renal): 52.4 µM
TGI (CAKI-1 renal): > 100 µM
GI50 (CCRF-CEM leukemia): 6.5 µM
TGI (CCRF-CEM leukemia): > 100 µM
GI50 (HOP-62 NSCLC): 4.92 µM
TGI (HOP-62 NSCLC): > 75.5 µM
GI50 (HT29 colon): > 100 µM
TGI (HT29 colon): > 100 µM
GI50 (MCF7 breast): 28.6 µM
TGI (MCF7 breast): > 100 µM
GI50 (MOLT-4 leukemia): 1430 nM
TGI (MOLT-4 leukemia): 3.03 µM
GI50 (NCI-H226 lung): 34.5 µM
TGI (NCI-H226 lung): > 100 µM
GI50 (NCI-H522 lung): 51.7 µM
TGI (NCI-H522 lung): > 100 µM
GI50 (PC-3 prostate): > 100 µM
TGI (PC-3 prostate): > 100 µM
GI50 (SF-295 CNS): 4.68 µM
TGI (SF-295 CNS): > 37.3 µM
GI50 (SK-MEL-2 melanoma): > 100 µM
TGI (SK-MEL-2 melanoma): > 100 µM
GI50 (SN12C renal): > 100 µM
TGI (SN12C renal): > 100 µM
GI50 (SNB-75 CNS): 22.5 µM
TGI (SNB-75 CNS): > 95.9 µM
